Here are results for 1 compound from patent EP0070049A1, “Derivative of acetylsalicylic acid having an analgetic, antipyretic, antiphlogistic and bronchosecretolytic activity” (UNIONE CHIMICA MEDICAMENTI- DIFME-S.p.A., priority 1981, dated 1983).

This series in a line: Acute oral toxicity (DL50, Lichtfield et al). Further details: species or system rats. To be noted: rat, in vivo. The source says:
La toxicité aiguë de l'acétylsalicylate de 2(o-méthoxy--phénoxy)éthanol a été évaluée en comparaison avec celle de l'acide acétylsalicylique et exprimée comme dose DL50 (la dose qui provoque la mort du 50% des animaux traités) en mg/kg de poids corporel des rats auxquels la substance a été administrée par voie orale. Les résultats de l'élaboration statistique suivant la méthode décrite par J.T.Lichtfield et al (J. Pharm. Exp. Ther., volume 96, page 99, 1949) donnent les suivantes valeurs de la dose toxique DLSO et, entre parenthèses, de son intervalle fiducial (valeurs minimale et maximale relevées): • acide acétylsalicylique 1400 (1207 1580) • acétylsalicylate de • 2(o-méthoxy-phénoxy)éthanol 2934 (2696 3098)

On to `COc1ccccc1OCCOC(=O)c1ccccc1OC(C)=O` [acétylsalicylate de 2(o-méthoxy-phénoxy)éthanol], for which the LD50 (usually the dose expected to kill half of the subjects tested) was determined as 2930 mg/kg.
